Where a name gives a salt, the structure may show the parent alone.
Experiments:
[1] = Metabolic stability in human liver microsomes, unbound intrinsic clearance (Cl int/fu mic); type: in vitro ADME; details: human, liver microsomes, pH 7.4, human liver microsomes 0.25 mg/mL, 0.5 μM compound, NADPH, read-out: Cl int, mic unb. (h) [l/h/kg] (unbound intrinsic clearance, human)
Method: Samples of the tested compounds (0.5 μM) were preincubated together with human liver microsomes (0.25 mg of microsomal protein/mL) in 0.05 M potassium phosphate buffer of pH 7.4 in microtiter plates at 37° C. for 5 minutes. The reaction was started by adding NADPH (1.0 mM). After 0, 5, 10, 15, 20 and 30 minutes, an aliquot was removed, the reaction was cooled and stopped by adding twice the amount of quench solution consisting of acetonitrile/methanol 1:1, and containing 0.2 μM carbutamide as internal standard. The samples were frozen until analyzed. The remaining concentration of undegraded test substance was determined by liquid chromatography-tandem mass spectrometry (LC-MS/MS). The half-life (t1/2) was determined from the gradient of the ratio of the signal of (test substance/internal standard)/unit time plot, allowing the calculation of the half-life of the test substance, assuming first order kinetics, from the decrease in the concentration of the compound with time. The microsomal clearance ([…]) was calculated as follows: […]=((ln(2)/t 1⁄2)/Microsomal Protein Concentration (mg/ml))*1000, leading to the unit of uL/min/mg. The scaled clearance (mClin_scaled) was calculated as […]_scaled=m CLint*(Microsomal Yield (mg/kg BW))/1000000*60, leading to the units L/h/kg. The Microsomal Yield is defined by the specifics of the used microsomes. Calculations were modified from references: Di, The Society for Biomolecular Screening, 2003, 453-462; Obach, D M D, 1999 vol 27. N 11, 1350-1359. A suspension of 0.25 mg/ml microsomal protein spiked with 0.5 μM of test compound was pipetted on one side of a HTDialysis device (HTDialysis LLC, 37 Ledgewood Drive, Gales Fery CT 06335) separated by a membrane with a MWcut off 12-14 K. 50 mM K-Phosphate buffer (pH 7.4) was added on the other side of the well. After incubation at 37° C. for 4 h while shaking at 150 rpm, aliquots of both sides were taken, quenched with MeOH/ACN 1:1 and 0.2 μM of internal standard and frozen until analysis by LCMSMS Cl int unbound=Cl int/fu mic

5-HT2C receptor = biological target: T1, 5-HT2C receptor (Homo sapiens, UniProt P28335); experiment: Human 5-HT2C functional assay (beta-arrestin2 recruitment, U2OS_HTR2C_β-Arrestin cells); type: cell-based; details: for EC50: beta-arrestin2 recruitment, U2OS_HTR2C_β-Arrestin cells, 1.5 h incubation, read-out: EC50 5-HT2C (potency in functional assay); for Emax: relative efficacy vs response to 10 μM 5-HT or maximal 5-HT effect (100%)
T1 construct: host or cells: U2OS
T1 sequence (P28335 33-458): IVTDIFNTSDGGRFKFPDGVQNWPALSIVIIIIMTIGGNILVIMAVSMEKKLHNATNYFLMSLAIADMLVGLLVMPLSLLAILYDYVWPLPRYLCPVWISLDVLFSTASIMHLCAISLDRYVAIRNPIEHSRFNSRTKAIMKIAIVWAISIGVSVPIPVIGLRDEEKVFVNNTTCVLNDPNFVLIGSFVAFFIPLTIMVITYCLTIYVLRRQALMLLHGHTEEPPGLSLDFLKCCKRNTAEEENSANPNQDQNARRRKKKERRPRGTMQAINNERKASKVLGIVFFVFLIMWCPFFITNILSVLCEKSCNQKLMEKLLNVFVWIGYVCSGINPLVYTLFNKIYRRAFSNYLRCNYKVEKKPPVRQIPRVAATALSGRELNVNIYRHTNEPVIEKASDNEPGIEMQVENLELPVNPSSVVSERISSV
T1 sequence (P32121 whole entry partner): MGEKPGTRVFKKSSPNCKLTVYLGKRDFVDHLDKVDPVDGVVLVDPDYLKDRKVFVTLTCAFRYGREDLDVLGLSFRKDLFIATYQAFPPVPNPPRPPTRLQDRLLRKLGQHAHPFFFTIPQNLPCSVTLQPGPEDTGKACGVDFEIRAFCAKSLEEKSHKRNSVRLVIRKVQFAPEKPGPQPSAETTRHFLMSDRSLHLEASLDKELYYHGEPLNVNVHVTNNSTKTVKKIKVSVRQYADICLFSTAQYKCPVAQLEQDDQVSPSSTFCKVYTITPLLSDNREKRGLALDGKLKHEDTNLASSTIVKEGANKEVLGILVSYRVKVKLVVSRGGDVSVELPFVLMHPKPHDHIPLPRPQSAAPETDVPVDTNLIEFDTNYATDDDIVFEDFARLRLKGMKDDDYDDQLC
In short: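 U2OS cells expressing HTR2C with β-galactosidase complementation, switched to 1% serum medium 24 h post-plating, were treated next day with compound for 1.5 h; chemiluminescence read. Response expressed as % of 10 µM 5-HT or maximal 5-HT effect; EC50 from 4-parameter variable-slope fit.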

Structure (SMILES) | CLint scaled at 0.5 μM [1] [L/h/kg] | EC50 (5-HT2C receptor) [nM] | Emax (5-HT2C receptor) [%]
COc1nc(OC2CCC(F)(F)CC2)c(F)cc1CNC(=O)C(C)N1CCC1 (stereo not drawn) [Example 43, 2-(Azetidin-1-yl)-N-[[6-(4,4-difluorocyclohexoxy)-5-fluoro-2-methoxy-3-pyridyl]-methyl]propanamide; Succinic Acid] | < 5 | 20 to 200 | > 70
COc1nc(OC2CC(F)(F)C2)c(F)cc1CNC(=O)[C@@H]1CCCN1 [Example 44, (2S)—N-[[6-(3,3-Difluorocyclobutoxy)-5-fluoro-2-methoxy-3-pyridyl]methyl]-pyrrolidine-2-carboxamide; Succinic Acid] | < 5 | < 20 | > 70
COc1nc(OCC(F)(F)C(F)F)c(F)cc1CNC(=O)[C@@H]1CCCN1 [Example 46, (2S)—N-[[5-Fluoro-2-methoxy-6-(2,2,3,3-tetrafluoropropoxy)-3-pyridyl]methyl]-pyrrolidine-2-carboxamide; Succinic Acid] | < 5 | < 20 | > 70
COc1nc(OCC2CC(F)(F)C2(F)F)c(F)cc1CNC(=O)[C@@H]1CCCN1 (stereo partly drawn) [Example 47, (2S)—N-[[5-Fluoro-2-methoxy-6-[(2,2,3,3-tetrafluorocyclobutyl)methoxy]-3-pyridyl]methyl]pyrrolidine-2-carboxamide; Succinic Acid] | < 5 | < 20 | > 70
COc1nc(OCC2(C(F)(F)F)CC2)c(F)cc1CNC(=O)[C@@H]1CCCN1 [Example 48, (2S)—N-[[5-Fluoro-2-methoxy-6-[[1-(trifluoromethyl)cyclopropyl]methoxy]-3-pyridyl]methyl]pyrrolidine-2-carboxamide; Succinic Acid] | < 5 | < 20 | > 70
COc1nc(OCC(C)CC(F)(F)F)c(F)cc1CNC(=O)[C@@H]1CCCN1 (stereo partly drawn) [Example 49, (2S)—N-[[5-Fluoro-2-methoxy-6-(4,4,4-trifluoro-2-methyl-butoxy)-3-pyridyl]-methyl]pyrrolidine-2-carboxamide; Succinic Acid] | 5 to 50 | < 20 | > 70
COc1nc(OC2CCC(F)(F)CC2)c(F)cc1CNC(=O)[C@H]1CCCN1C [Example 52, (2R)—N-[[6-(4,4-Difluorocyclohexoxy)-5-fluoro-2-methoxy-3-pyridyl]methyl]-1-methyl-pyrrolidine-2-carboxamide Hydrochloride] | < 5 | 20 to 200 | > 70
COc1nc(OC(C)C(F)(F)C(F)F)c(F)cc1CNC(=O)[C@@H]1CCCN1 (stereo partly drawn) [Example 53, (2S)—N-[[5-Fluoro-2-methoxy-6-(2,2,3,3-tetrafluoro-1-methyl-propoxy)-3-pyridyl]-methyl]pyrrolidine-2-carboxamide; Succinic Acid] | < 5 | < 20 | > 70
COc1nc(OC2CC3C(C2)C3(F)F)c(F)cc1CNC(=O)[C@@H]1CCCN1 (stereo partly drawn) [Example 54, (2S)—N-[[6-[(6,6-Difluoro-3-bicyclo[3.1.0]hexanyl)oxy]-5-fluoro-2-methoxy-3-pyridyl]methyl]pyrrolidine-2-carboxamide 2,2,2-trifluoroacetic Acid] | < 5 | < 20 | > 70
COc1nc(O[C@@H]2CCCC[C@H]2F)c(F)cc1CNC(=O)[C@@H]1CCCN1 [Example 55, (2S)—N-[[5-Fluoro-6-[(1R,2R)-2-fluorocyclohexoxy]-2-methoxy-3-pyridyl]methyl]pyrrolidine-2-carboxamide; 2,2,2-trifluoroacetic Acid] | < 5 | < 20 | > 70
COc1nc(OCC2CC3C(C2)C3(F)F)c(F)cc1CNC(=O)[C@@H]1CCCN1 (stereo partly drawn) [Example 56, (2S)—N-[[6-[(6,6-Difluoro-3-bicyclo[3.1.0]hexanyl)methoxy]-5-fluoro-2-methoxy-3-pyridyl]methyl]pyrrolidine-2-carboxamide; 2,2,2-trifluoroacetic Acid] | 5 to 50 | < 20 | > 70
COc1nc(OC2CCCC(F)(F)C2)c(F)cc1CNC(=O)[C@@H]1CCCN1 (stereo partly drawn) [Example 58, (2S)—N-[[6-(3,3-Difluorocyclohexoxy)-5-fluoro-2-methoxy-3-pyridyl]methyl]-pyrrolidine-2-carboxamide; 2,2,2-trifluoroacetic Acid] | < 5 | < 20 | > 70
COc1nc(OC2CCC(F)(F)CC2)c(F)cc1CNC(=O)[C@@H]1C[C@@H](C)CN1 [Example 59, (2 S,4R)—N-[[6-(4,4-Difluorocyclohexoxy)-5-fluoro-2-methoxy-3-pyridyl]methyl]-4-methyl-pyrrolidine-2-carboxamide Hydrochloride] | < 5 | < 20 | 50 to 70
COc1nc(OC2CCC(C(F)(F)F)CC2)c(F)cc1CNC(=O)[C@@H]1C[C@@H](C)CN1 (stereo partly drawn) [Example 60, (2S,4R)—N-[[5-Fluoro-2-methoxy-6-[4-(trifluoromethyl)cyclohexoxy]-3-pyridyl]methyl]-4-methyl-pyrrolidine-2-carboxamide Hydrochloride] | 50 to 500 | 20 to 200 | 50 to 70
COc1nc(OC2CCC(F)(F)CC2)c(F)cc1CNC(=O)[C@@H]1C[C@@H](C)CN1C [Example 61, (2S,4R)—N-[[6-(4,4-Difluorocyclohexoxy)-5-fluoro-2-methoxy-3-pyridyl]methyl]-1,4-dimethyl-pyrrolidine-2-carboxamide Hydrochloride] | 5 to 50 | 20 to 200 | > 70
COc1nc(OC2CCC(C(F)(F)F)CC2)c(F)cc1CNC(=O)[C@@H]1C[C@@H](C)CN1C (stereo partly drawn) [Example 62, (2S,4R)—N-[[5-Fluoro-2-methoxy-6-[4-(trifluoromethyl)cyclohexoxy]-3-pyridyl]methyl]-1,4-dimethyl-pyrrolidine-2-carboxamide Hydrochloride] | 50 to 500 | 20 to 200 | > 70
COc1nc(OCC2(C(F)(F)F)CC2)c(F)cc1CNC(=O)[C@@H]1CCCN1C [Example 63, (2S)—N-[[5-Fluoro-2-methoxy-6-[[1-(trifluoromethyl)cyclopropyl]methoxy]-3-pyridyl]methyl]-1-methyl-pyrrolidine-2-carboxamide Hydrochloride] | < 5 | < 20 | > 70
Cc1nc(OC2CCC(C(F)(F)F)CC2)ccc1CNC(=O)C1CCCN1 [Example 65, (S)—N-((2-Methyl-6-(((1R,4S)-4-(trifluoromethyl)cyclohexyl)oxy)pyridin-3-yl)methyl)pyrrolidine-2-carboxamide] | < 5 | 20 to 200 | 50 to 70
COc1nc(OC2CCC(C(F)F)CC2)c(F)cc1CNC(=O)[C@@H]1CCCN1 (stereo partly drawn) [Example 66, (2S)—N-[[6-[4-(Difluoromethyl)cyclohexoxy]-5-fluoro-2-methoxy-3-pyridyl]methyl]-pyrrolidine-2-carboxamide hydrochloride] | 5 to 50 | < 20 | > 70
COc1nc(OCC2CC2(F)F)c(F)cc1CNC(=O)[C@@H]1CCCN1C (stereo partly drawn) [Example 68, (2S)—N-[[6-[(2,2-Difluorocyclopropyl)methoxy]-5-fluoro-2-methoxy-3-pyridyl]-methyl]-1-methyl-pyrrolidine-2-carboxamide Hydrochloride] | < 5 | < 20 | > 70
COc1nc(OC2CC(F)(F)C2)c(F)cc1CNC(=O)[C@@H]1CCCN1C [Example 71, (2S)—N-[[6-(3,3-Difluorocyclobutoxy)-5-fluoro-2-methoxy-3-pyridyl]methyl]-1-methyl-pyrrolidine-2-carboxamide Hydrochloride] | < 5 | < 20 | > 70
COc1nc(OC2CCC(C(C)(F)F)CC2)c(F)cc1CNC(=O)[C@@H]1CCCN1 (stereo partly drawn) [Example 72, (2S)—N-((6-((4-(1,1-Difluoroethyl)cyclohexyl)oxy)-5-fluoro-2-methoxypyridin-3-yl)methyl)pyrrolidine-2-carboxamide 2,2,2-trifluoroacetate] | 5 to 50 | < 20 | > 70
